For 1 compound, Activity results are on record in ChEMBL document CHEMBL1143860, “Synthesis and biological activity of phosphatidylinositol-3,4,5-trisphosphorothioate” (Bioorg Med Chem Lett, 2008).

Structures are written as SMILES. Calls of active or inactive are those of the source. The calls are words filed in the database; no cut-off is given here.

The assay concerns A6. Description: Agonist activity at […] expressed in A6 cells assessed as increase in insulin-stimulated sodium transport at 50 uM. The class given is functional, cell-based.

Take `CCCCCCCCCCCCCCCC(=O)OC[C@H](COP(=O)(O)O[C@H]1[C@H](O)[C@@H](OP(O)(O)=S)[C@H](OP(O)(O)=S)[C@@H](OP(O)(O)=S)[C@H]1O)OC(=O)CCCCCCCCCCCCCCC`: the result was Active.
